Results published in publication PMC4920590, “GPR142 Controls Tryptophan-Induced Insulin and Incretin Hormone Secretion to Improve Glucose Metabolism” (PLoS ONE, 2016).
Read-outs that look alike come from different tables or passages of the source. Values belong to the compound of their own block, whether it stands above or below them.

Key:
[1] = target: T1, human GPR142 (Homo sapiens, UniProt Q7Z601); experiment: IP-1 accumulation assay in HEK293 cells stably expressing human GPR142; assay type: cell-based; conditions: for EC50: IP-1 accumulation, 1 hour, read-out: HEK293-hGPR142 EC50; for HEK293-hGPR142 EC50 (Emax): activity call, tested 170 nM to 30 mM; for IP-1 accumulation in HEK-hGPR142 cells: Fig 1A, 1B
T1 construct: expressed in transfected cells
T1 sequence (Q7Z601 1-374 isoform Q7Z601-2): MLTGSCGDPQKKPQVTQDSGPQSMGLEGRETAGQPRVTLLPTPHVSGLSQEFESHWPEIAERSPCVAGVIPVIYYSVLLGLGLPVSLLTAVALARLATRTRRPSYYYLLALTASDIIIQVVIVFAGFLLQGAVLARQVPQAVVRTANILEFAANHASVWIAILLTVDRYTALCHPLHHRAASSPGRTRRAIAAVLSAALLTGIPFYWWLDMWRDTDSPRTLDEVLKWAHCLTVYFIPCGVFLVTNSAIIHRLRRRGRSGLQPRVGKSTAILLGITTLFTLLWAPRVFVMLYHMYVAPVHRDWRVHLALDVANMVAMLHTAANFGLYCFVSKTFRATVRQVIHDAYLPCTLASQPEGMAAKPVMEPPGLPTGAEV
Protocol: (§1) HEK293 cells obtained from ATCC were used to generate cell lines stably expressing human GPR142 or mouse Gpr142 by transfecting cells with pcDNA3.1 expression vectors containing each cDNA. Cells expanded from single clones were maintained in DMEM containing 10% fetal bovine serum (FBS) and 800 μg/ml G418. Untransfected control HEK293 cells were maintained in DMEM containing 10% FBS. Cells were plated in 384 well plates at 5000 cells per well and allowed 18 hours for attachment. After addition of compounds, cells were incubated for 1 hour. IP-1 measurements were performed using an HTRF assay kit (Cisbio) according to manufacturer’s protocol using assay buffer containing 1 × HBSS (Hank’s Balanced Salt Solution, +Ca, +Mg), 0.1% bovine serum albumin (BSA), 50 mM LiCl and 20 mM HEPES (4-(2-hydroxyethyl)-1-piperazineethanesulfonic acid), pH 7.2. The reaction was stopped by addition of IP1-d2 followed by cryptate solution and the plates were incubated at 25°C for 1 hour. Fluorescence was read in an Envision instrument at 665 nm and 620 nm. The ratio of 665 nm/620 nm was calculated and converted to IP-1 levels using a standard curve method. The data was fit to 4-parameter fit logistics to determine EC50 values.

[2] = Glucose tolerance test (IPGTT/OGTT) after oral dosing in mice; assay type: in vivo, mouse; conditions: for glucose excursion during IPGTT in Gpr142 KO mice / glucose excursion during IPGTT in WT mice: 500 mg/kg p.o. 15 minutes prior to glucose 2 g/kg i.p.
Protocol: (§2) Mice were fasted overnight and allowed free access to water. […] Tail blood glucose levels were measured at indicated time points using handheld glucometers. For incretin hormone measurements, blood was collected via cardiac bleeds into EDTA-tubes containing DPP-4 inhibitor (Millipore) and protease inhibitor cocktail (Thermo Fisher). For insulin measurements during GTT, blood was collected from the tail.

[3] = target: T2, mouse GPR142 (Mus musculus, UniProt Q7TQN9); experiment: IP-1 accumulation assay in HEK293 cells stably expressing mouse Gpr142; assay type: cell-based; conditions: for Emax: HEK293, relative efficacy normalized to maximal response of L-Tryptophan (100%), read-out: HEK293-mGPR142 Emax; for EC50: IP-1 accumulation, 1 hour, read-out: HEK293-mGPR142 EC50
T2 sequence (Q7TQN9 67-365 limits assumed): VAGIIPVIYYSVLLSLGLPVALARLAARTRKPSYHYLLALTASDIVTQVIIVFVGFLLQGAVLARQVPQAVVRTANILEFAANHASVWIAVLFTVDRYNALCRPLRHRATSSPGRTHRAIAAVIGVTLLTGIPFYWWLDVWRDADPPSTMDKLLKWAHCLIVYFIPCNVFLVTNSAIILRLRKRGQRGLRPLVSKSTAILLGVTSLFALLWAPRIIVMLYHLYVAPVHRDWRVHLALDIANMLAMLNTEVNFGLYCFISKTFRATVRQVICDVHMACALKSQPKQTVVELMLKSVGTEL
Protocol: as §1

[4] = test system: murine pancreatic islets; experiment: Insulin secretion in isolated murine pancreatic islets (WT and Gpr142 KO); assay type: cell-based, mouse; conditions: 11.1 mM glucose, 1 hour
Protocol: Secretion was stopped by refrigerating the plates at 4°C for 3 minutes. Supernatant was removed from the wells and assayed for insulin levels using the MA6000 Mouse/Rat Insulin Kit (Meso Scale Discovery).

[5] = test system: human pancreatic islets; experiment: Insulin secretion in isolated human pancreatic islets; assay type: cell-based; conditions: 11 mM glucose, 1 hour, non-diabetic donor
Text: Human pancreatic islets were purchased from Prodo Labs at the Scharp-Lacy Research Institute (Irvine, CA, www.prodolabs.com) through the Integrated Islet Distribution Program in accordance with internal review board (IRB) ethical guidelines for use of human tissue. Islets were isolated at Prodo Labs from human pancreata from listed cadaver organ donors that were refused for primary human pancreas transplantation or isolated islets transplantion into listed diabetic recipients. […] The next day day islets were incubated for 30 min in EBSS buffer containing 0.1% BSA and 3 mM glucose. […] Islets were cultured for 60 min at 37°C. The incubation was stopped by chilling the samples on ice. The culture media was removed and stored at -20°C until its insulin concentration was measured. Insulin was measured using a custom built immunoassay (Meso Scale Discovery).

[6] = Plasma insulin and incretin hormone levels after oral dosing in mice; assay type: in vivo, mouse; conditions: for GIP release in Gpr142 KO mice / insulin release in Gpr142 KO mice / plasma GLP-1 in Gpr142 KO mice: 500 mg/kg p.o., 10 minutes after dosing, vs WT
Protocol: as §2
Immunoassays were used to measure total GIP (Millipore, ELISA), total GLP-1, and insulin (Meso Scale Discovery). Enzymatic assays were used to measure TG, beta-hydroxybutarate (Sigma-Aldrich), and total cholesterol (Thermo Fisher). HDL-cholesterol was determined in the supernatant after removal of LDL/vLDL-cholesterol by a precipitation reagent (Sigma-Aldrich); non-HDL-cholesterol was determined by subtracting HDL from total cholesterol. Free fatty acids were measured by GC-MS.

[7] = test system: untransfected control HEK293 cells; experiment: IP-1 accumulation in untransfected control HEK293 cells; assay type: cell-based; conditions: Fig 1B
Protocol: as §1

[8] = test system: Free Fatty Acid Receptor 1 (FFAR1, GPR40); parameters: method as in PMID 21752941; conditions: preclinical models; cited from earlier work
[9] = parameters: method as in PMID 25787200; conditions: humans, phase III study; cited from earlier work
[10] = HEK293, relative efficacy normalized to maximal response of L-Tryptophan (100%), read-out: HEK293-hGPR142 Emax
[11] = 30 mg/kg p.o., normal C57 mice, fasted state and after oral glucose challenge
[12] = 500 mg/kg p.o. 15 minutes prior to glucose 2 g/kg p.o.
[13] = 150 or 500 mg/kg p.o., overnight fasted normal C57 male mice

SMILES: N[C@@H](Cc1c[nH]c2ccc(O)cc12)C(=O)O [5-OH L-Tryptophan]
EC50 ([1]; 170 nM to 30 mM): 12 mM
HEK293-hGPR142 Emax ([1]; relative efficacy normalized to maximal response of L-Tryptophan (100%)): 34%

SMILES: CCCc1c(C(=O)NCc2cncn2C)cnn1-c1ncc(C)c(-c2cccs2)n1 [Compound A, N-[(3-methylimidazol-4-yl)methyl]-1-[5-methyl-4-(2-thienyl)pyrimidin-2-yl]-5-propyl-pyrazole-4-carboxamide]
glucose excursion during OGTT and IPGTT ([2]; p.o. 30 minutes before glucose 2 g/kg, OGTT 10 mg/kg diet-induced obese C57 mice, IPGTT 30 mg/kg): robust suppression of glucose excursion
Emax [3]: 90%
EC50 ([3]; 0.17 nM to 30 μM): 0.00088 µM
insulin secretion in WT murine islets [4]: stimulated ex vivo insulin secretion
Emax [1, 10]: 90%
EC50 ([1]; 0.17 nM to 30 μM): 7.1e-06 mM
insulin secretion in human primary islets [5]: stimulated ex vivo insulin secretion
plasma insulin during glucose tolerance test ([6]; 10 mg/kg p.o., diet-induced obese C57 mice, 15 minutes after glucose challenge): increase in plasma insulin
meal induced GIP, GLP-1, and insulin levels ([6]; 30 mg/kg p.o. 30 minutes prior to oral mixed meal challenge (Ensure-plus 10 mL/kg), C57 mice): additional stimulatory effects
effects on plasma hormones and glycemia in Gpr142 KO mice ([6]; 30 mg/kg p.o., KO mice): completely absent
plasma GIP level [6, 11]: significantly increased
plasma GLP-1 level [6, 11]: significantly increased

SMILES: N[C@H](Cc1c[nH]c2ccccc12)C(=O)O [D-Tryptophan]
Emax [1, 10]: 29%
EC50 ([1]; 170 nM to 30 mM): 3.5 mM
significant activation of GPR142 signaling at concentrations below 10 mM ([1]; Table 1): None

SMILES: C[C@H](N)C(=O)O [L-Alanine]
HEK293-hGPR142 EC50 (Emax) [1]: Inactive

SMILES: N=C(N)NCCC[C@H](N)C(=O)O [L-Arginine]
Emax ([1]; HEK293, read-out: HEK293-hGPR142 Emax): 23%
EC50 ([1]; 170 nM to 30 mM): > 20 mM

SMILES: N[C@@H](CCC(=O)O)C(=O)O [L-Glutamic Acid]
HEK293-hGPR142 EC50 (Emax) [1]: Inactive

SMILES: N[C@@H](Cc1c[nH]cn1)C(=O)O [L-Histidine]
HEK293-hGPR142 EC50 (Emax) [1]: Inactive

SMILES: CC[C@H](C)[C@H](N)C(=O)O [L-Isoleucine]
HEK293-hGPR142 EC50 (Emax) [1]: Inactive

SMILES: CSCC[C@H](N)C(=O)O [L-Methionine]
HEK293-hGPR142 EC50 (Emax) [1]: Inactive

SMILES: N[C@@H](Cc1ccccc1)C(=O)O [L-Phenylalanine]
glucose excursion during IPGTT in Gpr142 KO mice [2]: clearly present
glucose excursion during IPGTT in WT mice [2]: clearly present
Emax [3]: 92%
potency on mouse GPR142 relative to L-Trp (fold less potent) ([3]; HEK293 cell-based IP-1 assay): 4 to 5 fold
EC50 ([3]; 170 nM to 30 mM): 2800 µM
insulin secretion in Gpr142 KO islets compared with WT islets [4]: not significantly different
insulin secretion in WT murine islets [4]: more modest
IP-1 accumulation in HEK-hGPR142 cells [1]: has an effect in this assay at concentrations comparable to that of L-Trp
Emax [1, 10]: 96%
EC50 ([1]; 170 nM to 30 mM): 3.5 mM
GIP release in Gpr142 KO mice [6]: blunted
insulin release in Gpr142 KO mice [6]: blunted
plasma GLP-1 in Gpr142 KO mice [6]: increased GLP-1 in KO mice to a similar extent as in WT

SMILES: N[C@@H](CO)C(=O)O [L-Serine]
HEK293-hGPR142 EC50 (Emax) [1]: Inactive

SMILES: N[C@@H](Cc1c[nH]c2ccccc12)C(=O)O [L-Tryptophan]
IP-1 accumulation in untransfected control HEK293 cells [7]: had no effect
glucose excursion during IPGTT in Gpr142 KO mice [2]: no significant effect
glucose excursion during IPGTT in WT mice [2]: suppressed glucose excursion
glucose excursion during OGTT in Gpr142 KO mice [2, 12]: no significant effect
glucose excursion during OGTT in WT mice [2, 12]: suppressed glucose excursion
IP-1 accumulation in HEK-mGPR142 cells [3]: stimulated IP-1 accumulation
Emax [3]: 100%
EC50 ([3]; 170 nM to 30 mM): 620 µM
insulin secretion in Gpr142 KO islets compared with WT islets [4]: significantly blunted
insulin secretion in WT murine islets [4]: dose-dependently stimulated the release of insulin
IP-1 accumulation in HEK-hGPR142 cells [1]: stimulated IP-1 accumulation
Emax [1, 10]: 100%
EC50 ([1]; 170 nM to 30 mM): 2.1 mM
insulin secretion in human primary islets [5]: robustly stimulated insulin secretion
GIP release in Gpr142 KO mice [6]: no L-Trp-dependent release
insulin release in Gpr142 KO mice [6]: no L-Trp-dependent release
plasma GLP-1 in Gpr142 KO mice [6]: increased GLP-1 in KO mice to a similar extent as in WT
time of peak plasma insulin, GIP and GLP-1 concentrations after dosing ([6]; 150 or 500 mg/kg p.o., normal C57 male mice): 5 to 10 min
plasma GIP level [6, 13]: rapidly and dose-dependently increased
plasma GLP-1 level [6, 13]: rapidly and dose-dependently increased
plasma insulin level [6, 13]: rapidly and dose-dependently increased

SMILES: Cc1cc(OCCCS(C)(=O)=O)cc(C)c1-c1cccc(COc2ccc3c(c2)OC[C@H]3CC(=O)O)c1 [TAK-875]
glucose-dependent insulin secretion [8]: stimulate glucose-dependent insulin secretion
glycemic control [9]: improve glycemic control

SMILES: NCCc1c[nH]c2ccccc12 [Trytamine]
HEK293-hGPR142 EC50 (Emax) [1]: Inactive

The next lines start with the values.

HEK293-hGPR142 EC50 (Emax) [1]: Inactive
SMILES: NCC(=O)O [Glycine]

HEK293-hGPR142 EC50 (Emax) [1]: Inactive
SMILES: NC(=O)C[C@H](N)C(=O)O [L-Asparagine]

Emax [1, 10]: 41%
EC50 ([1]; 170 nM to 30 mM): > 20 mM
SMILES: N[C@@H](CC(=O)O)C(=O)O [L-Aspartic Acid]

HEK293-hGPR142 EC50 (Emax) [1]: Inactive
SMILES: N[C@@H](CS)C(=O)O [L-Cysteine]

HEK293-hGPR142 EC50 (Emax) [1]: Inactive
SMILES: NC(=O)CC[C@H](N)C(=O)O [L-Glutamine]

Emax [1, 10]: 18%
EC50 ([1]; 170 nM to 30 mM): 12 mM
SMILES: Nc1ccccc1C(=O)C[C@H](N)C(=O)O [L-Kynurenine]

HEK293-hGPR142 EC50 (Emax) [1]: Inactive
SMILES: CC(C)C[C@H](N)C(=O)O [L-Leucine]

Emax [1, 10]: 20%
EC50 ([1]; 170 nM to 30 mM): 16 mM
SMILES: NCCCC[C@H](N)C(=O)O [L-Lysine]

HEK293-hGPR142 EC50 (Emax) [1]: Inactive
SMILES: O=C(O)[C@@H]1CCCN1 [L-Proline]

HEK293-hGPR142 EC50 (Emax) [1]: Inactive
SMILES: C[C@@H](O)[C@H](N)C(=O)O [L-Threonine]

Emax [1, 10]: 14%
EC50 ([1]; 170 nM to 30 mM): 16 mM
SMILES: N[C@@H](Cc1ccc(O)cc1)C(=O)O [L-Tyrosine]

HEK293-hGPR142 EC50 (Emax) [1]: Inactive
SMILES: CC(C)[C@H](N)C(=O)O [L-Valine]
